In ChEMBL document CHEMBL2073830, “A novel inhibitor of the mammalian peptide transporter PEPT1” (Biochemistry, 2001):
Non-standard residues stand in square brackets, D forms with d. Residues, ends and D or L forms follow the SMILES beside them. *: point of attachment. Cbz = O=C(OCc1ccccc1)*

What follows are molecules tested against T1, Solute carrier family 15 member 1 (Homo sapiens, UniProt P46059) (assay: TP_TRANSPORTER: inhibition of Gly-Sar uptake in Caco-2 cells).
T1 sequence (P46059 whole entry): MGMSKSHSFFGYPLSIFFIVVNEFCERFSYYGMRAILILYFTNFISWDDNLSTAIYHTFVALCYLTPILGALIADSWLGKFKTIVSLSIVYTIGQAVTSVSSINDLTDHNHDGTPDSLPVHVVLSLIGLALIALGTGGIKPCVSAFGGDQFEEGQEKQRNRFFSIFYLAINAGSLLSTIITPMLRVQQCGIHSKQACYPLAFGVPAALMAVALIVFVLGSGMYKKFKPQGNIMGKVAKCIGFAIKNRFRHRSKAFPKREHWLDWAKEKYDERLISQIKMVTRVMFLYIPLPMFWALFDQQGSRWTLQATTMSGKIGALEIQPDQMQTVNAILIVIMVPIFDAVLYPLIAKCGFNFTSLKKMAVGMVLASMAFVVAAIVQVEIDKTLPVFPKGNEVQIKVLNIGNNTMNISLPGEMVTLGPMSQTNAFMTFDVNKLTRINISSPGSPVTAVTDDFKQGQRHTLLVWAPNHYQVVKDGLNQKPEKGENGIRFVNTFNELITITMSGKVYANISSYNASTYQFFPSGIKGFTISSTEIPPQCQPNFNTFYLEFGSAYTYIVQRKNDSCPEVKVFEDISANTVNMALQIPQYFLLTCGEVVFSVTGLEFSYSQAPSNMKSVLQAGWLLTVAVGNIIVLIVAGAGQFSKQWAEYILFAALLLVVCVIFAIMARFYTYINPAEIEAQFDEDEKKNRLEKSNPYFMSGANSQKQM
Format: functional, cell-based

Ki [µM] | SMILES
19 | N[C@@H](CCCCNC(=O)OCc1ccc([N+](=O)[O-])cc1)C(=O)N1CCC[C@H]1C(=O)O
33 | NCCCC[C@H](NC(=O)OCc1ccccc1)C(=O)N1CCC[C@H]1C(=O)O (Cbz-Lys-Pro-OH)
350 | NCCCC[C@H](N)C(=O)N1CCC[C@@H]1C(=O)O (H-Lys-[dP]-OH)
